These results are taken from US10799473B2, “Methods of inhibiting IGF-1R activation or downtream signalling thereof to reduce radiation-induced cellular senescence” (The Henry M. Jackson Foundation for the Advancement of …, priority 2013, dated 2020).

“Also recorded” adds a separate entry of the source.

For experiment [1], the system named is S6 ribosomal protein (Ser 235/236). Kind of experiment: Western blotting for phosphorylated S6 ribosomal protein (Ser 235/236) in irradiated HPAEC. It counts as cell-based, human. As to conditions: 5 μM AG1024, 10 Gy X-rays, 72 hours post-irradiation. As to the method: (§1) Cell Culture and Reagents. Human pulmonary artery endothelial cells (HPAEC) were obtained from Cell Applications, Inc. (San Diego, Calif.) and cultured in EBM-2 basal medium containing supplements and growth factors as indicated in the manufacturer's protocol (Lonza, Walkersville, Md.). Cells were maintained at 37° C. in a humidified atmosphere containing 5% CO2. Subconfluent HPAEC at passages 4-8 were used for all experiments. The following chemical inhibitors and their final concentrations were used: AG1024 (5 μM, EMD Millipore, Billerica, Mass.), U0126 (10 μM), Ly294002 (20 μM), rapamycin (500 nM). […] 20 mM N-acetyl cysteine (NAC) was dissolved in distilled H2O.
(§2) Cell Irradiation: HPAEC were either irradiated or sham-irradiated at subconfluence (70-90%). Irradiations were conducted using RS2000 Biological Irradiator (Rad Source Technologies, Alpharetta, Ga.) with 0 3 mm Cu shielding at a dose rate of 2.4 Gy/min (160 kV, 25 mA) at room temperature.
(§3) Western blotting. […]
(§4) Protein concentrations from whole cell lysates were determined using Protein® BCA Protein Assay Kit (Thermo Scientific, Rockford, Ill.). […] Proteins were detected with horseradish peroxidase-linked secondary antibodies and SuperSignal® West Pico Chemiluminescent Substrate (Pierce, Rockford, Ill.). […]

Experiment [2] concerns Human pulmonary artery endothelial cells (HPAEC). Kind of experiment: Cell morphology / cellular volume of X-ray irradiated HPAEC. It counts as cell-based. The settings on record: inhibitor pretreatment (AG1024 5 μM, Ly294002 20 μM, rapamycin 500 nM), 10 Gy X-rays, within 96 h. The method, then:
as §1, §2
Senescence-associated fl-galactosidase (SA-β-gal) Assay. SA-β-gal assay was performed according to established protocols with minor modifications (Dimri, Lee et al. 1995; Bandyopadhyay, Gatza et al. 2005). To avoid density-dependent false positive expression of SA-β-gal, HPAEC were seeded at a density of 1.0-2.0×10^4 on 12-well or 6-well dishes and allowed to reach 50-70% confluence prior to treatment. […]

Experiment [3] has the same test system. Kind of experiment: Senescence-associated β-galactosidase (SA-β-gal) assay in X-ray irradiated HPAEC. It counts as cell-based. As to conditions: HPAEC pretreated 30 minutes with inhibitor (AG1024 5 μM, Ly294002 20 μM, rapamycin 500 nM, U0126 10 μM), 10 Gy X-rays, 4 days post-irradiation. As to the method:
Cell Culture and Reagents. Human pulmonary artery endothelial cells (HPAEC) were obtained from Cell Applications, Inc. (San Diego, Calif.) and cultured in EBM-2 basal medium containing supplements and growth factors as indicated in the manufacturer's protocol (Lonza, Walkersville, Md.). Cells were maintained at 37° C. in a humidified atmosphere containing 5% CO2. Subconfluent HPAEC at passages 4-8 were used for all experiments. The following chemical inhibitors and their final concentrations were used: […] 20 mM N-acetyl cysteine (NAC) was dissolved in distilled H2O. Cell Irradiation: HPAEC were either irradiated or sham-irradiated at subconfluence (70-90%). Irradiations were conducted using RS2000 Biological Irradiator (Rad Source Technologies, Alpharetta, Ga.) with 0 3 mm Cu shielding at a dose rate of 2.4 Gy/min (160 kV, 25 mA) at room temperature. Senescence-associated fl-galactosidase (SA-β-gal) Assay. SA-β-gal assay was performed according to established protocols with minor modifications (Dimri, Lee et al. 1995; Bandyopadhyay, Gatza et al. 2005). To avoid density-dependent false positive expression of SA-β-gal, HPAEC were seeded at a density of 1.0-2.0×10^4 on 12-well or 6-well dishes and allowed to reach 50-70% confluence prior to treatment. At indicated time-points postirradiation, cells were washed twice in ice cold PBS, fixed in 2% formaldehyde/0.2% glutaraldehyde in PBS for 5 min at room temperature and washed again twice in ice-cold PBS. 1.5-2 ml of freshly prepared X-gal staining solution (1 mg/ml of 5-bromo-4-chloro-3-indolyl β-D-galactoside in 40 mM citric acid/sodium phosphate, pH 6.0 (made by mixing 36.85 parts 0.1 M citric acid solution with 63.15 parts 0.2 M sodium phosphate solution and then verifying pH to be 6.0, 0.1M citric acid was added to adjust pH when necessary), 5 mM potassium ferrocyanide, 5 mM potassium ferricyanide, 150 mM NaCl, 2 mM MgCl2) was then added to the culture dishes and the dishes were incubated for 12-20 h at 37° C. (without CO2). After incubation, cells were washed twice in ice-cold PBS and once in methanol and allowed to dry. Cells were examined for perinuclear blue staining indicative of SA-β-gal activity in at least 3 random fields.

A further experiment has as its system p53 and p21/wafl. Kind of experiment: Western blotting for p53 and p21/wafl expression in irradiated HPAEC. It counts as cell-based, human. As to conditions: western blot. The method, then: as §1, §2, §3, §4
(In western blotting, separated proteins are transferred to a membrane and probed.)

A further experiment has as its system Akt S473. Kind of experiment: Western blotting for phosphorylated Akt (S473) in irradiated HPAEC. As to conditions: 5 μM AG1024, 10 Gy X-rays, 3 hours post-irradiation. It counts as cell-based, human. As to the method:
as §1, §2, §3, §4

The test system of experiment [4] is IGF-1R. Kind of experiment: Western blotting for IGF-1R phosphorylation in H2O2-treated HPAEC. It counts as cell-based, human. The method, then: as §1, §3, §4
(§5) Radiation-induced reactive oxygen species (ROS) are required for early IGF-1R phosphorylation. […] We then determined whether this ROS-induced phosphorylation is ligand-dependent by treating the cells with H2O2 in the presence of AG1024 and blotting for phosphorylated IGF-1R. […]

A further experiment relates to caspase-3. Kind of experiment: Western blotting for cleaved caspase-3 in irradiated HPAEC (radiation-induced apoptosis). As to conditions: 6 hours post-irradiation. It counts as cell-based, human. As to the method: as §1, §2, §3, §4
For experiment [5], the system named is IGF-1R. Kind of experiment: Western blotting for IGF-1R phosphorylation in X-ray irradiated HPAEC. It counts as cell-based, human. As to conditions: 20 mM NAC 1 hour, 10 Gy X-rays, 3 hours post-irradiation. The method, then: as §1
Cell Irradiation: HPAEC were either irradiated or sham-irradiated at subconfluence (70-90%). […]
as §4, §5

As for `CC(C)(C)c1cc(C=C(C#N)C#N)cc(Br)c1O` [AG1024], the “phosphorylation of S6 ribosomal protein (Ser 235/236)” value in experiment [1] is recorded as “significantly reduced”. The “cellular morphology / change in cellular volume after radiation exposure” value in experiment [2] was “prevented the change in cellular volume”. Moreover, in experiment [3], the “radiation-induced accelerated senescence (SA-β-gal activity, percentage of SA-β-gal positive cells)” value was “Attenuation; also recorded: significantly reduced cellular senescence”. The “radiation-induced p53 and p21/wafl expression” value in the experiment with p53 and p21/wafl (5 μM AG1024, 10 Gy X-rays) is recorded as “suppression”. In addition, in the experiment with Akt S473, the “radiation-induced phosphorylation of Akt S473” value is reported as “had no effect”. In addition, in the experiment on IGF-1R [4] (5 μM AG1024 30 minutes, then 10 μM H2O2 20 minutes), the “ROS (H2O2)-induced IGF-1R phosphorylation in presence of inhibitor” value was “not inhibited”. Besides, the “levels of active (cleaved) caspase-3, radiation-induced apoptosis” value with caspase-3 (5 μM AG1024 30 minutes, 50 Gy X-rays) was “does not regulate; also recorded: did not alter”.

`OO` [H2O2]: the “IGF-1R phosphorylation induced by H2O2 alone” value in the experiment on IGF-1R [4] (H2O2 1 μM and 10 μM, 20 minutes) is reported as “sufficient to induce IGF-1R phosphorylation”.

As to `O=c1cc(N2CCOCC2)oc2c(-c3ccccc3)cccc12` [LY294002, 2-(4-Morpholinyl)-8-phenyl-4H-chromen-4-one], the “cellular morphology / change in cellular volume after radiation exposure” value in experiment [2] is recorded as “maintenance of normal cellular morphology”. Besides, the “radiation-induced accelerated senescence (SA-β-gal activity, percentage of SA-β-gal positive cells)” value in experiment [3] is “attenuated”; in experiment [3] (listed as Ly294002) it was “Attenuation”. In the experiment with p53 and p21/wafl (500 nM rapamycin or 20 μM Ly294002, 10 Gy X-rays), the “radiation-induced p21/wafl expression” value is on record as “attenuated”.

As for `CC(=O)N[C@@H](CS)C(=O)O` [NAC, N-acetyl-L-cysteine], the “IR-induced IGF-1R phosphorylation” value in the experiment with IGF-1R [5] was “attenuated”.

With `N#CC(=C(/N)Sc1ccccc1N)/C(C#N)=C(\N)Sc1ccccc1N` [U0126], the “radiation-induced accelerated senescence (SA-β-gal activity, percentage of SA-β-gal positive cells)” value in experiment [3] is reported as “did not rescue cells from undergoing accelerated senescence”.

On to “IGF-1: exogenous IGF-1 (IGF-1R activator), activating ligand of IGF-1R”, for which, in the experiment with caspase-3 (exogenous IGF-1 50 ng/ml 18 hours, X-rays (10 Gy in legend, 50 Gy in text)), the “levels of active (cleaved) caspase-3, radiation-induced apoptosis” value is recorded as “does not regulate; also recorded: did not alter”.
